# Tested on: subjects with moderately to severely active SLE
# Test: Exposure-response analysis (logistic regression) of upadacitinib steady-state Cavg vs efficacy endpoints
# Set-up: species or system human
# Description: Quartile plots for the relationships between upadacitinib steady-state (SS) Cavg and efficacy responses at Week 24 are shown in FIG. 5A to 5C. Specifically, FIG. 5A is an exposure-response quartile plot for upadacitinib efficacy at week 24 for the efficacy endpoint of SLE Responder Index (SRI-4) and Steroid Dose ≤10 mg prednisone equivalent QD, FIG. 5B is an exposure-response quartile plot for upadacitinib efficacy at week 24 for the efficacy endpoint of BILAG-Based Combined Lupus Assessment (BICLA), and FIG. 5C is an exposure-response quartile plot for upadacitinib efficacy at week 24 for the efficacy endpoint of SLE Responder Index (SRI-4).
# The highest upadacitinib steady-state (SS) Cavg quartile (which would be equivalent to 45 mg QD exposures) was consistently associated with the highest observed response across the three endpoints and was the primary driver for upadacitinib exposure-response trends. The exposure-response model-predicted median (90% prediction interval) percentage of subjects achieving SRI-4 and steroid dose ≤10 mg prednisone equivalent QD, BICLA, and SRI-4 at Week 24 is 50% (42% to 58%), 57% (50% to 65%), and 55% (47% to 62%), respectively, for upadacitinib 30 mg UPA QD compared to 38% (31% to 46%), 39% (32% to 46%), and 40% (32% to 47%), respectively, for placebo. A upadacitinib 45 mg QD dose is predicted to provide 6% to 8% greater responses compared to 30 mg QD.
# Quartile plots for the relationships between upadacitinib Cavg and efficacy responses at Week 48 are shown in FIGS. 10A-10C (SRI-4 and steroid dose ≤10 mg prednisone equivalent, SRI-4, and BICLA, respectively). Based on logistic regression analysis, there is an exposure-response relationship (p <0.05) for upadacitinib with each of the Week 48 efficacy endpoints (SRI-4 and steroid dose (10 mg prednisone equivalent QD, BICLA, and SRI-4). […]
structure (smiles),measurement,setting,value
"CC[C@@H]1CN(C(=O)NCC(F)(F)F)C[C@@H]1c1cnc2cnc3[nH]ccc3n12 [Upadacitinib, (3S,4R)-3-ethyl-4-(3H-imidazo[1,2-a]pyrrolo[2,3-e]pyrazin-8-yl)-N-(2,2,2-trifluoroethyl)pyrrolidine-1-carboxamide]",plateau for efficacy at the plasma exposures evaluated,"exposures associated with 30 mg QD, Week 24",not reached
same,"relationship of upadacitinib plasma exposures with SRI-4 and steroid dose ≤10 mg prednisone equivalent, SRI-4, and BICLA at Week 24","logistic regression, p<0.05, Week 24",statistically significant relationship
same,"exposure-response relationship with SRI-4 and steroid dose ≤10 mg prednisone equivalent, SRI-4, and BICLA at Week 48","logistic regression, p<0.05, Week 48",clear exposure-response relationship

# Reference: patent publication US20240041870A1, “METHODS OF TREATING SYSTEMIC LUPUS ERYTHEMATOSUS” (AbbVie Inc., priority 2022, published 2024)
